Assay results reported in paper PMC5034337 (Scientific Reports, 2016).

Experiments:
[1] = in vivo
[2] = French farmers with detectable DOM-1 levels; cited from earlier work
[3] = in vivo; cited from earlier work
[4] = test system: HT-29 colon carcinoma cells
[5] = test system: primary human colon epithelial cells (HCEC-1CT)
mammalian ribosomes = assay type: biochemical, rabbit
[6] = moderately exposed UK population; cited from earlier work

Compound	detection in urine samples [1]	share of the total urinary DON, average [2] [%]	maximum urinary concentration [3] [µg/L]	concentration(s) with proliferative stimulus (Caco-2 cells) [nM]	cytotoxic effect (Caco-2 cells)	concentration from which a significant decrease of cell viability was detectable (Caco-2 cells; human) [µM]	concentration(s) with proliferative stimulus [4] [µM]	cytotoxic effect [4]	concentration from which a significant decrease of cell viability was detectable ([4]; human) [µM]	concentration(s) with proliferative stimulus (T24 bladder cancer cells) [nM]	cytotoxic effect (T24 bladder cancer cells)	lowest concentration at which the proliferative effect was present (T24 bladder cancer cells) [nM]	concentration from which a significant decrease of cell viability was detectable (T24 bladder cancer cells; human) [µM]	cytotoxic effect [5]	concentration from which a significant decrease of cell viability was detectable ([5]; human) [µM]	concentration at which translation was completely inhibited (mammalian ribosomes) [µM]	overall 24 h urinary excretion rate of total DON (sum of DON and its glucuronides), average [6] [%]
C=C1[C@@H]2O[C@@H]3C=C(C)C(=O)[C@@H](O)[C@]3(CO)[C@@]1(C)C[C@H]2O [DOM-1, deepoxy-DON]	no DOM-1 was detected in any sample	< 5															
CC1=C[C@H]2O[C@@H]3[C@H](O)C[C@](C)([C@@]2(CO)[C@H](O)C1=O)[C@]31CO1 [DON, deoxynivalenol]			275	10	concentration dependent cytotoxicity	10	0.1	concentration dependent cytotoxicity	10	0.1 to 10	concentration dependent cytotoxicity	0.1	1	concentration dependent cytotoxicity	1	20	72
